Test results reported in US11492325B2, “Compounds as inhibitors of sodium channels” (Human BioMolecular Research Institute, priority 2016, dated 2022).
pIC50: −log10 of the molar value. Like-named read-outs stand apart in the source and are kept apart here.

How the values were obtained:
[1] = Metabolism in human hepatic S9; details: for Liver S-9 T1/2: s9
Protocol: (§1) A typical incubation contained rat, mouse, dog or human liver microsomes (0.4-0.5 mg of protein), 100 mM potassium phosphate buffer (pH7.4), 50 μM test compound, an NADPH-generating system consisting of 0.5 mM NADP^+, 0.5 mM glucose-6-phosphate, 1 IU/mL glucose-6-phosphate dehydrogenase, 1 mg/mL diethylenetriaminepentaaceticacid (DETAPAC), and 3 mM MgCl2 in a final incubation volume of 0.25 mL. […] After centrifugation at 3000 rpm for 5 min, the organic fraction was collected, the solvent was removed with a stream of argon and the residue was reconstituted in 125 μL of MeOH and 125 μL H2O, mixed thoroughly, centrifuged at 13,000 rpm for 5 min and analyzed by high performance liquid chromatography. Samples were run on a Hitachi D-7000 HPLC system using a L-7100 analytical pump, L-7400 UV-Visible variable wavelength detector, and L-7600 automatic sample injector. […] Disappearance of the analyte was monitored over time. A plot of the area under the curve for the normalized analyte versus time afforded the half-life values and kapp.
Microsomes contain CYPs and FMO metabolic enzymes. S9 contains soluble enzymes (i.e., aldehyde oxidase, MAO, etc.).

[2] = Metabolic stability in human liver microsomes; type: in vitro ADME; details: human, microsomes
Protocol: as §1

[3] = tested on: Male BALBc mice; details: mice, 100 mg/kg; for behavioral effects at 100 mg/kg: enantiomers
Source text: Male BALBc mice (20-22 g) were used throughout these studies. The animals were maintained in a temperature-controlled room with 12-hr periods of light and darkness and had continuous access to water and animal food. […] Groups contained 2-4 animals.

[4] = target: hERG potassium channel (IKr) (Homo sapiens, UniProt Q12809); assay: Automated patch clamp, hERG (IKr) expressed in CHO cells; details: for pIC50: hERG (IKr) IC50, CHO cells
[5] = tested on: normal human induced pluripotent stem cell (hiPSC) cardiomyocyte; details: normal hiPSC cardiomyocytes; for WT-Fold Prolongation: APD
[6] = tested on: cardiomyocytes derived from hiPSCs from a LQTS3 patient; details: LQT3 cardiomyocytes
[7] = target: Nav1.5 sodium channel transfected into HEK293 cells (Homo sapiens, UniProt Q14524); assay: in vitro
Protocol: (§2) This provided data to investigate the physiology and action of target compounds on individual ion channels. The assay used standardized protocols for culturing and conducting conventional whole cell recording that have been previously developed for both current and voltage-clamp to characterize action potentials using transfected cells. Briefly, the Nav1.5 sodium channel was transfected into HEK293 cells. […] Briefly, cells were plated on 0.1% gelatin-coated 35-mm plastic Petri dishes. […] Data was reported as IC50 values±STD (Table 1).

[8] = target: Nav1.5 sodium channel, peak current (INaP) (Homo sapiens, UniProt Q14524, form not given); assay: in vitro
Protocol: as §2

[9] = tested on: cardiomyocytes derived from hiPSCs from a LQTS3 patient; assay: cells; details: Homo sapiens, Cardiomyocyte, read-out: LQT-IC50 (uM)-Shortening
[10] = Chemical stability in PBS buffer at pH 7.4 or 3.0, 37° C.; type: physicochemical; details: 1% Ethanol
Protocol: A typical incubation contained 100 μM of the test compound prepared in PBS buffer (pH 7.4 or 3.0, 50 mM) with 1% Ethanol. The test compounds were incubated at 37° C. An aliquot from incubations was taken at various times and injected onto an RP-HPLC system as described above. Disappearance of the analyte was monitored over time.

[11] = pH 3, 100 μM in PBS, read-out: Half-Life @ pH 3.0 and 37° C.
[12] = pH 7.4, 100 μM in PBS, read-out: Half-Life @ pH 7.4 and 37° C.
[13] = ratio peak/late IC50, Example 2

Chain of hERG potassium channel (IKr) (Q12809 whole entry): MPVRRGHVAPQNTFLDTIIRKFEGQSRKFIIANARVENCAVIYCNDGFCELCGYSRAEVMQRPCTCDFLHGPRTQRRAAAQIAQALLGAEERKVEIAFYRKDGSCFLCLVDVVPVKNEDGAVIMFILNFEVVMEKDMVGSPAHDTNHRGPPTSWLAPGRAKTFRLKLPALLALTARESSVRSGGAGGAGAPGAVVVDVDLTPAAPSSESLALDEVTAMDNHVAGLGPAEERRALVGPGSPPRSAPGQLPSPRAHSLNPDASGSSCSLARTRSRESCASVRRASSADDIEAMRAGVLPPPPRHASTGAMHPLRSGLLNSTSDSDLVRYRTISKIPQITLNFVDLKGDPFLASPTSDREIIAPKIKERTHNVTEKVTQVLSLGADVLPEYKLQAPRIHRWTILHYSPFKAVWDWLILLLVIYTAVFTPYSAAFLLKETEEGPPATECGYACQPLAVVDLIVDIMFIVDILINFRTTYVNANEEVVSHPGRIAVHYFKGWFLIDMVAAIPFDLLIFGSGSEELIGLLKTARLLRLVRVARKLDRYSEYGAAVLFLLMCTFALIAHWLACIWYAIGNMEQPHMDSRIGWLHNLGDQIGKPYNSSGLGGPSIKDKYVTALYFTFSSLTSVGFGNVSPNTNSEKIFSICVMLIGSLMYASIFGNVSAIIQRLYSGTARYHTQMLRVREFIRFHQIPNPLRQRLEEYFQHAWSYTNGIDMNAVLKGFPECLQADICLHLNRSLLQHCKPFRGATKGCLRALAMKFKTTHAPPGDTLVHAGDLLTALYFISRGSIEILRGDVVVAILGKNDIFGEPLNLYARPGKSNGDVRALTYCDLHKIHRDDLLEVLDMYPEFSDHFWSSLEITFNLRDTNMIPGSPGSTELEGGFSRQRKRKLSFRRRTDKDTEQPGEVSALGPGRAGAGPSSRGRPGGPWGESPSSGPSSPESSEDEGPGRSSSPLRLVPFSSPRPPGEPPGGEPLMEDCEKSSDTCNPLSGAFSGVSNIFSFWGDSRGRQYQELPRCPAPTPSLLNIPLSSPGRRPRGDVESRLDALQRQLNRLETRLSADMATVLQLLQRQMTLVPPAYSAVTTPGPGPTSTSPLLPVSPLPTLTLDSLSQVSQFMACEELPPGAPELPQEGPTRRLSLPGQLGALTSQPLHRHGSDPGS

Row | Compound | LQT-Cessation Dose [6] | pIC50 [4] | DKr/NaL ([4]; ratio hERG IC50/late Na IC50) | DNaP/Kr ([4]; ratio peak Na IC50/hERG IC50) | WT-Fold Prolongation [5] | LQT-Fold Shortening [6] | pIC50 [7] | DNap/NaL ([7]; ratio peak IC50/late IC50) | pIC50 ([8]; Peak Na+ (INaP) IC50) | IC50 [9] | Cessation of Beating [5] | other results
1 | Cl.NC(COc1ccccc1C(F)(F)F)c1ccccc1 (stereo in doubt) [(S)-82] | – | – | – | – | – | – | – | – | – | – | – | Liver S-9, remaining after 1 hr ([1]; human, s9, 1 h): >95% after 1 hr; Liver Microsomes T1/2 [2]: 6.08 h; Behavior Effect (S)-enantiomer [3]: 2/4 slightly lethargic; behavioral effects at 100 mg/kg [3]: Minor lethargy
2 | NC(COc1ccccc1C(F)(F)F)c1ccccc1 (centres unmarked) [drawing 312] | – | – | – | – | – | – | – | – | – | – | – | half-life at 100 μM [10, 11]: > 360 h; half-life at 100 μM [10, 12]: > 720 h
3 | Cl.NC(COc1cc(C(F)(F)F)cc(C(F)(F)F)c1)c1ccccc1 (stereo in doubt) [(S)-78] | – | – | – | – | – | – | – | – | – | – | – | Liver S-9 T1/2 ([1]; human): 17.33 h; Liver Microsomes, remaining after 1 hr [2]: >95% after 1 hr; Behavior Effect (S)-enantiomer [3]: 2/4 shaking; behavioral effects at 100 mg/kg [3]: Minor lethargy
4 | COCCNC(COc1cc(C(F)(F)F)cc(C(F)(F)F)c1)c1ccccc1.Cl (centres unmarked) [Compound 80] | 133 µM | 4.77 | 16.5 | 2.7 | None | 1.636 | – | 44.2 | 4.35 | 6.59 µM | None | pIC50 ([4]; Example 2): 4.77; DKr/NaL ([4]; ratio, Example 2): 16.5; DNaP/Kr ([4]; ratio, Example 2): 2.7; WT-Prolongation Dose [5]: None; DNap/NaL [7, 13]: 44.2
5 | Cc1cccc(C)c1OC[C@H](C)N [(S)-Mexiletine, reference compound] | – | – | – | – | – | – | – | – | – | – | – | Liver S-9, remaining after 1 hr ([1]; human liver S-9, 1 hr): >95% after 1 hr
6 | NC(COc1cc(C(F)(F)F)cc(C(F)(F)F)c1)c1ccccc1 (centres unmarked) [drawing 310] | – | – | – | – | – | – | – | – | – | – | – | half-life at 100 μM [10, 11]: > 720 h; half-life at 100 μM [10, 12]: 720 h
7 | Cc1cc(C)cc(OCC(N)c2ccccc2)c1.Cl (stereo in doubt) [(S)-70] | – | – | – | – | – | – | – | – | – | – | – | Liver S-9, remaining after 1 hr ([1]; human, s9, 1 h): >95% after 1 hr; Liver Microsomes, remaining after 1 hr [2]: >95% after 1 hr; Behavior Effect (S)-enantiomer [3]: 2/4 lethargic; behavioral effects at 100 mg/kg [3]: Minor lethargy
8 | COCCNC(COc1ccccc1C)c1ccccc1.Cl (centres unmarked) [Compound 90] | 133 µM | – | – | – | None | 1.1 | – | 11.8 | – | – | 133 µM | pIC50 ([4]; Example 2): 4.60; DKr/NaL ([4]; ratio, Example 2): 1.32; DNaP/Kr ([4]; ratio, Example 2): 1.32; WT-Prolongation Dose [5]: None; DNap/NaL [7, 13]: 11.8; pIC50 ([7]; read-out: Late Na+ (INaL) IC50, patch clamp, transfected cells): 5.55; pIC50 ([7]; read-out: Late Na+ (INaL) IC50, transfected cells, Example 2): 5.55; pIC50 ([7]; read-out: Peak Na+ (INaP) IC50, transfected cells, Example 2): 4.48; pIC50 [8]: 4.48
9 | Cl.NC(COc1cc(C(F)(F)F)cc(C(F)(F)F)c1)c1ccccc1 (stereo in doubt) [(R)-78] | – | – | – | – | – | – | – | – | – | – | – | Liver S-9, remaining after 1 hr ([1]; human, s9, 1 h): >95% after 1 hr; Liver Microsomes, remaining after 1 hr [2]: >95% after 1 hr; Behavior Effect (R)-enantiomer [3]: No detectable effect; behavioral effects at 100 mg/kg [3]: no apparent behavioral effects
10 | Cc1cc(C)cc(OCC(N)c2ccccc2)c1.Cl (stereo in doubt) [(R)-70] | – | – | – | – | – | – | – | – | – | – | – | Liver S-9 T1/2 ([1]; human): 16.92 h; Liver Microsomes T1/2 [2]: 6.77 h; Behavior Effect (R)-enantiomer [3]: No detectable effect; behavioral effects at 100 mg/kg [3]: no apparent behavioral effects
11 | Cc1ccc(OCC(N)c2ccccc2)c(C)c1.Cl (centres unmarked) [Compound 66] | 66 µM | 5.23 | 2.8 | 3.7 | None | 1.192 | – | 10.5 | 4.66 | 0.486 µM | 66 µM | pIC50 ([4]; Example 2): 5.23; DKr/NaL ([4]; ratio, Example 2): 2.8; DNaP/Kr ([4]; ratio, Example 2): 3.7; WT-Prolongation Dose [5]: None; DNap/NaL [7, 13]: 10.7
12 | Cc1ccccc1OCC(N)c1ccccc1.Cl (stereo in doubt) [(S)-25] | – | – | – | – | – | – | – | – | – | – | – | Liver S-9, remaining after 1 hr ([1]; human, s9, 1 h): >95% after 1 hr
13 | NC(COc1ccccc1C(F)(F)F)c1ccccc1 (centres unmarked) [Compound 27, 1-phenyl-2-(2-(trifluoromethyl)phenoxy)ethanamine] | 66 µM | 4.43 | 36.1 | 1.1 | None | 1.783 | 5.98 | 39.5 | 4.39 | > 0.8 µM | 66 µM | WT-Prolongation Dose [5]: None
14 | Cc1cccc(C)c1OC[C@@H](C)N [(R)-Mexiletine, reference compound] | – | – | – | – | – | – | – | – | – | – | – | Liver S-9, remaining after 1 hr ([1]; human liver S-9, 1 hr): >95% after 1 hr
15 | Cc1ccccc1OCC(N)c1ccccc1.Cl (stereo in doubt) [(R)-25] | – | – | – | – | – | – | – | – | – | – | – | Liver S-9 T1/2 ([1]; human): 6.8 h

The next lines start with results.

Row | LQT-Cessation Dose [6] | Compound | pIC50 [4] | DKr/NaL ([4]; ratio hERG IC50/late Na IC50) | DNaP/Kr ([4]; ratio peak Na IC50/hERG IC50) | WT-Fold Prolongation [5] | LQT-Fold Shortening [6] | pIC50 [7] | DNap/NaL ([7]; ratio peak IC50/late IC50) | pIC50 ([8]; Peak Na+ (INaP) IC50) | IC50 [9] | Cessation of Beating [5] | other results
16 | 133 µM | CNC(C)COc1c(C)cccc1C (centres unmarked) [Compound 11, 1-(2,6-dimethylphenoxy)-N-methylpropan-2-amine] | 4.36 | 1.2 | 2.8 | 2.194 | 1.112 | 4.44 | 3.4 | 3.91 | 1.48 µM | – | WT-EAD Dose [5]: 22 µM
17 | None | Cc1ccccc1OCC(C)N (centres unmarked) [Compound 9, 1-(2-Methylphenoxy)propan-2-amine] | 4.01 | 1.9 | 1.7 | 2.363 | 1.28 | 4.28 | 3.1 | 3.79 | 0.76 µM | – | WT-EAD Dose [5]: 200 µM
18 | 200 µM | Cc1cccc(C)c1OCC(N)C1CC1 (centres unmarked) [Compound 10] | 4.52 | 4.1 | 4.3 | 2.262 | 1.162 | 5.14 | 18.0 | 3.89 | 0.8 µM | – | WT-EAD Dose [5]: 66 µM
19 | 22 µM | Cc1cccc(C)c1OCC(N)C(C)(C)C (centres unmarked) [Compound 12, 1-(2,6-dimethylphenoxy)-3,3-dimethylbutan-2-amine] | 4.31 | 4.5 | 1.9 | >4 | 1.182 | 4.96 | 8.3 | 4.04 | 0.648 µM | – | WT-EAD Dose [5]: 7.4 µM
20 | 66 µM | Cc1cccc(OCC(N)c2ccccc2)c1C (centres unmarked) [Compound 35, 2-(2,3-dimethylphenoxy)-1-phenylethanamine] | – | – | – | None | 1.406 | 5.99 | – | 4.96 | – | 133 µM | pIC50 ([4]; Example 2): 5.04; DKr/NaL ([4]; ratio, Example 2): 8.9; DNaP/Kr ([4]; ratio, Example 2): 1.2; WT-Prolongation Dose [5]: None; DNap/NaL [7, 13]: 10.6
21 | None | Cc1cccnc1OCC(O)c1ccccc1 (centres unmarked) [Compound 21] | 4.00 | 4.7 | 1.3 | None | 1.23 | – | 6.1 | 3.89 | – | None | pIC50 ([4]; Example 2): < 4.00; DKr/NaL ([4]; ratio, Example 2): >4.7; DNaP/Kr ([4]; ratio, Example 2): 1.3; WT-Prolongation Dose [5]: None; DNap/NaL [7, 13]: 6.1
22 | 200 µM | Cc1cc(C)cc(OCC(C)N)c1 (centres unmarked) [Compound 55] | 4.31 | 2.9 | 3.1 | 1.159 | 1.232 | 4.77 | 9.1 | 3.81 | 4.45 µM | None | –
